From paper PMC2119205 (The Journal of Experimental Medicine, 1992)
Blank lines part the entries; values can stand above or below the molecule they belong to.

Legend:
I-Ak molecules = conditions: cited from earlier work
I-Ek molecules = conditions: cited from earlier work
I-Ed molecules = conditions: cited from earlier work
T cell response = conditions: cited from earlier work
[1] = test system: antigen presentation by LNC to T cell hybridoma 1C5.1; experiment: Chloroquine treatment of irradiated LNC before T hybridoma activation; type: cell-based; conditions: C3H mice primed with 14 nmol/mouse HEL in CFA, 10^6 LNC/well; chloroquine 1-100 µM, hybridoma 1C5.1 (Fig. 3)
[2] = test system: T cell hybridoma 1C5.1 (I-Ak/HEL 46-61); type: cell-based, mouse; conditions: read-out: Responsiveness: amount of HEL or peptide inducing 50% of the maximal response; hybridoma 1C5.1, restriction Ak; LK-35.2 cells as APC; mean of three to four experiments
[3] = test system: T cell hybridoma 3A9 (I-Ak/HEL 46-61); type: cell-based, mouse; conditions: read-out: Responsiveness: amount of HEL or peptide inducing 50% of the maximal response; hybridoma 3A9, restriction Ak; LK-35.2 cells as APC; mean of three to four experiments
[4] = test system: T cell hybridoma 2D4.1 (I-Ak/HEL 112-129); type: cell-based, mouse; conditions: read-out: Responsiveness: amount of HEL or peptide inducing 50% of the maximal response; hybridoma 2D4.1, restriction Ak; LK-35.2 cells as APC; mean of three to four experiments
[5] = test system: T cell hybridoma 1H11.3 (I-Ed/HEL 108-116); type: cell-based, mouse; conditions: read-out: Responsiveness: amount of HEL or peptide inducing 50% of the maximal response; hybridoma 1H11.3, restriction Ed; LK-35.2 cells as APC; mean of three to four experiments
[6] = test system: T cell hybridoma 2G7.1 (I-Ek/HEL 1-18); type: cell-based, mouse; conditions: read-out: Responsiveness: amount of HEL or peptide inducing 50% of the maximal response; hybridoma 2G7.1, restriction Ek; LK-35.2 cells as APC; mean of three to four experiments
[7] = test system: T cell hybridoma 1C5.1 (I-Ak/HEL 46-61); type: in vivo, C3H mice; conditions: LNC from HEL-primed mice (not shown)
[8] = test system: T cell hybridoma 3A9 (I-Ak/HEL 46-61); type: in vivo, C3H and DBA/2 mice; conditions: C3H (H-2k) mice, 7 nmol/mouse HEL-CFA, LNC day 8, no antigen added (Fig. 1)
[9] = test system: T cell hybridoma 1H11.3 (I-Ed/HEL 108-116); type: in vivo, C3H and DBA/2 mice; conditions: DBA/2 (H-2d) mice, 7 nmol/mouse HEL-CFA, LNC day 8, no antigen added (Fig. 1)

Molecule: DRGDQSTDYGIFQINSR [ML 46-62]
Binding to I-Ak molecules (I-Ak molecules): binds strongly
Binding to I-Ek molecules (I-Ek molecules): failsto bind
Binding to I-Ed molecules (I-Ed molecules): failsto bind
Immunogenicity in mice (T cell response): nonimmunogenic

Molecule: CCN(CC)CCCC(C)Nc1ccnc2cc(Cl)ccc12 (centres unmarked) [chloroquine]
Effect on antigen presentation by LNC from HEL-primed mice [1]: failsto interfere

EC50 [2]: 0.3 µM
EC50 [3]: 0.02 µM
EC50 [4]: 0.3 µM
EC50 [5]: 0.5 µM
EC50 [6]: 0.3 µM
Molecule: hen egg white lysozyme [HEL]
Time after immunization of maximal antigen-presenting activity in LNC [7]: 8 days
IL-2 production by 3A9 induced by LNC from primed mice [8]: induce
IL-2 production by 1H11.3 induced by LNC from primed mice [9]: induce

Molecule: CNDGRTPGSRNLCN [HEL 64-77]
Binding to I-Ak (I-Ak molecules): does not bind
